# pIC50, pKi: −log10 of the molar value. Entries after “also recorded” stand apart in the source; their conditions may differ. Where a SMILES comes first, the peptide text is derived from it. [ ]: non-standard residue; d: D form. The star is where a group is joined. Sta = CC(C)C[C@H](N)[C@@H](O)CC(=O)O; Isovaleryl = CC(C)CC(=O)*; Cbz = O=C(OCc1ccccc1)*; CH2F = FC*
# Tests used:
# SARS-CoV S protein [1] = assay: microbe, parasite or virus in culture; type: cell-based
# VSV-G = type: cell-based
# human cathepsin L = human cathepsin L (Homo sapiens, UniProt P07711); type: biochemical
# human cathepsin L, sequence (P07711 114-333): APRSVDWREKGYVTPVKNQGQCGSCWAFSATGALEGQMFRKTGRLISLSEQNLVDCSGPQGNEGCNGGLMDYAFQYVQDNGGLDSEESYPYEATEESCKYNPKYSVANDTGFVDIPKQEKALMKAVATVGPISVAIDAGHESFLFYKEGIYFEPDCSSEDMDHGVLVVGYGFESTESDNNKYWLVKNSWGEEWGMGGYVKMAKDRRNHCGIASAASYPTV
# EboV GP glycoprotein = type: cell-based
# MLV-Amphotropic Env = type: cell-based
# thrombin = details: read-out: Ki, inhibition of thrombin; cited from earlier work
# ASLV-A Env = type: cell-based
# SARS-CoV S protein [2] = type: cell-based
# SARS-CoV (strain Tor2) = type: cell-based
# caspase 4 [3] = target: T1, caspase 4 (Homo sapiens, UniProt P49662); assay: biochemical
# T1 sequence (P49662 81-270 limits assumed): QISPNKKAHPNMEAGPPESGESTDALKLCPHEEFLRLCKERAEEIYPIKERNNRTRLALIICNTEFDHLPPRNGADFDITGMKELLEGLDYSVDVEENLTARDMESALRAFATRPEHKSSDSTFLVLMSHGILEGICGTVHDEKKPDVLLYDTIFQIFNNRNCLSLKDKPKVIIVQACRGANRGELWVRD
# T1 sequence (P49662 290-377 limits assumed): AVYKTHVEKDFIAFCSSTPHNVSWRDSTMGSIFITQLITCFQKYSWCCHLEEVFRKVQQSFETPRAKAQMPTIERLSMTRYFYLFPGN
# caspase 2 [4] = target: T2, caspase 2 (Homo sapiens, UniProt P42575); assay: biochemical
# T2 sequence (P42575 170-325 limits assumed): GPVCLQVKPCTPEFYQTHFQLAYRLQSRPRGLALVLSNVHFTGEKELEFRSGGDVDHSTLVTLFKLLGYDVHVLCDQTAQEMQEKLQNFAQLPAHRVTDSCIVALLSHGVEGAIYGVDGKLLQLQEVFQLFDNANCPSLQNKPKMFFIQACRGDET
# T2 sequence (P42575 348-452 limits assumed): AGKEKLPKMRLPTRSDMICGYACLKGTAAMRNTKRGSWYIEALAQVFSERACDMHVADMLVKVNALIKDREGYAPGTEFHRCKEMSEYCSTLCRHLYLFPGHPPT
# caspase 6 [5] = target: T3, caspase 6 (Homo sapiens, UniProt P55212); type: biochemical
# T3 sequence (P55212 24-179 limits assumed): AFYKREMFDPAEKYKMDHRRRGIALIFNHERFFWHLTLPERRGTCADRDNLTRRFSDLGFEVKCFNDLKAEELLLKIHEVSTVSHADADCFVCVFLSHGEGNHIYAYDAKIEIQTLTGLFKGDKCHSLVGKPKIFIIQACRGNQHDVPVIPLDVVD
# T3 sequence (P55212 194-293 limits assumed): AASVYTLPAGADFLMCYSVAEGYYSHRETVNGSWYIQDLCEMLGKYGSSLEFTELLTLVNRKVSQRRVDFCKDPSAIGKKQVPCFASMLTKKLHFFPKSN
# caspase 4 [6] = target: T1, caspase 4; type: biochemical
# caspase 2 [7] = target: T2, caspase 2; type: biochemical
# caspase 6 [8] = target: T3, caspase 6; assay: biochemical
# [9] = IC50 against the three caspases (range stated for all)
compound,measurement,setting,value
CCCNC(=O)[C@H]1O[C@@H]1C(=O)N[C@H](C(=O)N1CCC[C@H]1C(=O)O)[C@@H](C)CC [CA-074],effect on infection of HIV-luc(SARS S),SARS-CoV S protein [1],did not dramatically affect infection
same,effect on infection of HIV-luc(VSV-G),VSV-G,did not dramatically affect infection
CC(C)CC(=O)N[C@H](C(=O)N[C@H](C(=O)N[C@@H](CC(C)C)[C@@H](O)CC(=O)N[C@@H](C)C(=O)N[C@@H](CC(C)C)[C@@H](O)CC(=O)O)C(C)C)C(C)C [pepstatin] (Isovaleryl-VV[Sta]A[Sta]-OH),effect on infection by pseudotypes bearing S protein,SARS-CoV S protein [1],had no effect
same,effect on VSV-G mediated infection,VSV-G,had no effect
"CC(C)[C@H](NC(=O)OCc1ccccc1)C(=O)N[C@H](C=O)Cc1ccccc1 [MDL 28170, Z-Val-Phe-CHO] (Cbz-Val-Phe-aldehyde)",effect on SARS CoV S pseudotype entry/infection,SARS-CoV S protein [1],inhibits entry; also recorded: potently and specifically inhibits pseudotype infection
same,pIC50,"SARS-CoV S protein [1]; read-out: IC50, pseudotype virion entry into cells",~7.00
same,hit in cathepsin L microarray screen,human cathepsin L,inhibitors and hits
same,effect on EboV GP pseudotype entry/infection,EboV GP glycoprotein,inhibits entry; also recorded: potently and specifically inhibits pseudotype infection
same,effect on MLV pseudotype entry,MLV-Amphotropic Env,not inhibited
same,effect on VSV pseudotype entry,VSV-G,not inhibited
aprotinin,effect on infection by pseudotypes bearing S protein,SARS-CoV S protein [1],had no effect
N=C(N)c1ccccc1 [benzamidine],pKi,thrombin,3.00 to 3.52
CC(=O)N[C@@H](CC(C)C)C(=O)N[C@@H](CC(C)C)C(=O)N[C@H](C=O)CCCNC(=N)N [leupeptin],concentration necessary to achieve 95% inhibition of S protein-mediated entry,SARS-CoV S protein [1],100 µg/mL
same,inhibition at 10 µg/mL,"SARS-CoV S protein [1]; Severe acute respiratory syndrome coronavirus, HEK-293T, 10 μg/ml, read-out: inhibition of entry mediated by SARS-CoV S protein",> 95%
same,hit in cathepsin L microarray screen,human cathepsin L,inhibitors and hits
same,effect on ASLV-A Env mediated infection,ASLV-A Env,no effect
same,effect on S protein-mediated intervirion fusion (luciferase activity),SARS-CoV S protein [2],S protein-mediated fusion was lost
same,effect on infection mediated by MLV-Amphotropic Env,MLV-Amphotropic Env,not inhibited
same,effect on infection mediated by VSV-G,VSV-G,not inhibited
same,effect on SARS-CoV replication,SARS-CoV (strain Tor2),little or no effect
same,effect on infection by replication-competent SARS-CoV,SARS-CoV (strain Tor2),inhibited
"CC1=NN(c2ccccc2)C(=O)C1=NNc1c(Br)cc(Br)cc1Br [compound 1, 5-methyl-2-phenyl-4-[(2,4,6-tribromo-phenyl)-hydrazono]-2,4-dihydro-pyrazol-3-one]",inhibition,caspase 4 [3],100%
same,pIC50,caspase 4 [3]; IC50 against caspase 4,~3.30
same,pIC50,caspase 4 [3]; [9],2.30 to 3.30
same,inhibition,caspase 2 [4],100%
same,pIC50,caspase 2 [4]; IC50 against caspase 2,~2.30
same,pIC50,caspase 2 [4]; [9],2.30 to 3.30
same,substrate conversion in microarray screen,caspase 6 [5],low substrate conversion
same,substrate conversion in microarray screen,caspase 4 [6],reduced substrate conversion
same,substrate conversion in microarray screen,caspase 2 [7],reduced substrate conversion
same,inhibition,caspase 6 [8],100%
same,pIC50,caspase 6 [8]; IC50 against caspase 6,~2.30
same,pIC50,caspase 6 [8]; [9],2.30 to 3.30
"CC(C)C[C@H](NC(=O)[C@H](CC(C)C)NC(=O)[C@H](CC(C)C)NC(=O)OCc1ccccc1)C(=O)CF [Z-LLL-FMK, Z-leu-leu-leu-fluoromethyl ketone] (Cbz-Leu-Leu-Leu-CH2F)",effect on infection of HIV-luc(SARS S),SARS-CoV S protein [1],efficiently inhibited infection
same,effect on infection of HIV-luc(VSV-G),VSV-G,but not HIV-luc(VSV-G)
Cl.N [ammonium chloride],effect on infection mediated by S protein,SARS-CoV S protein [1],dramatically reduced infection
same,effect on infection mediated by VSV-G,VSV-G,dramatically reduced infection

# — patent US20070203073A1 (priority 2005, published 2007)
